# pIC50: −log10 of the molar value. Several values for one entry are separate records, joined by “and”; a condition that tells them apart may be missing. Equal entries are not always repeated. Where two headings read alike, the source gives them in different places.
# Key:
# MERTK = target: T1, MERTK (Homo sapiens, UniProt Q12866); test: phospho-MERTK immunoblot of J82 and MDXC1 lysates; type: cell-based; details: J82 and MDXC1 cells
# T1 construct: endogenous in cells; host or cells: J82 and MDXC1 (J82 xenograft explant)
# T1 sequence (Q12866 21-999): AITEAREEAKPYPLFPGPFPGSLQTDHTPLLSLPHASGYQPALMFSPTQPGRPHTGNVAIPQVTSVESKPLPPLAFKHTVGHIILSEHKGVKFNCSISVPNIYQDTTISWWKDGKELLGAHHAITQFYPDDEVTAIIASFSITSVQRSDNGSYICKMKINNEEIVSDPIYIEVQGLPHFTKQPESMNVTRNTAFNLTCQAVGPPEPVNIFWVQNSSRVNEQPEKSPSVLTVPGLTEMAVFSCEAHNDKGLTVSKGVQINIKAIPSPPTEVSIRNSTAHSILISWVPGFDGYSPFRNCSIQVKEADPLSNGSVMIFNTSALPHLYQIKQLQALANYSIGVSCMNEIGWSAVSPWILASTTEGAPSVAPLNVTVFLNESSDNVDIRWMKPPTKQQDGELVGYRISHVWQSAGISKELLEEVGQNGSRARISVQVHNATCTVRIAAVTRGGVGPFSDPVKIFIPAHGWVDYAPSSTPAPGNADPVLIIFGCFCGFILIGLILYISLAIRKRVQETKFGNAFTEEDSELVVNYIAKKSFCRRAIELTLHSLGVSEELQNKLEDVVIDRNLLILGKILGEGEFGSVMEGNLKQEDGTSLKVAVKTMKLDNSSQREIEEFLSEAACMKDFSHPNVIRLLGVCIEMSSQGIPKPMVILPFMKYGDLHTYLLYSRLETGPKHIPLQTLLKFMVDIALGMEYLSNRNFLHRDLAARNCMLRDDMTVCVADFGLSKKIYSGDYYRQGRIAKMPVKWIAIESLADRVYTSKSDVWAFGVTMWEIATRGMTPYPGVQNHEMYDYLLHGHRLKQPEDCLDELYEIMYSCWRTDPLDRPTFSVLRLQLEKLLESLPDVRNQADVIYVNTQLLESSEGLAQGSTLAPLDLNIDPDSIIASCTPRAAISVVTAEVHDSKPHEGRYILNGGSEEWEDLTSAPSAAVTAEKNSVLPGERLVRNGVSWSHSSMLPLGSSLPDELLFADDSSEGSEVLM
# Description: For SDS-PAGE and immunoblot analysis, cultured cells were washed with cold PBS, extracted in Laemmli sample buffer, sonicated in ice-cold water with 3 cycles of 15 sec sonication followed by 1 min of cooling time. Samples were then heated for 5 min at 95°C prior to SDS-PAGE and electrophoretic transfer to nitrocellulose or PVDF membrane. Membranes were processed as described previously: membranes were blocked with 5% milk in Tris buffered saline, 0.1% Tween 20 (TBST) for 1 h at 25°C before incubating with primary antibody (1:1000 dilution) in TBST-5% milk for 16 h at 4°C. Membranes were then washed 3 times with TBST, incubated with horse radish peroxidase-labeled secondary antibody (1:10,000 dilution) for 1 h at 25°C, and washed for 3 h with TBS prior to ECL detection (Pierce/Thermo Fisher Scientific) according to the manufacturer’s supplied protocol. Imaging and quantitation of ECL light emission was performed using an Azure Biosystems c600 imaging system (Dublin, California USA).
# Fig 8 Serial passage of J82 cell xenografts in mice. (A) Tumor volume (mm^3) of individual J82 (left) or MDXC1 (middle) cell xenografts in mice, or mean (+/- SD) tumor growth of both cell line xenografts (right), vs. days post implantation.
# TYRO3 = TYRO3 (Homo sapiens, UniProt Q06418); test: cell-free kinase inhibition assay, cabozantinib dose-dependence; type: biochemical; details: minimum of 3 x 10-dose curves
# Sequence of TYRO3 (Q06418 41-890): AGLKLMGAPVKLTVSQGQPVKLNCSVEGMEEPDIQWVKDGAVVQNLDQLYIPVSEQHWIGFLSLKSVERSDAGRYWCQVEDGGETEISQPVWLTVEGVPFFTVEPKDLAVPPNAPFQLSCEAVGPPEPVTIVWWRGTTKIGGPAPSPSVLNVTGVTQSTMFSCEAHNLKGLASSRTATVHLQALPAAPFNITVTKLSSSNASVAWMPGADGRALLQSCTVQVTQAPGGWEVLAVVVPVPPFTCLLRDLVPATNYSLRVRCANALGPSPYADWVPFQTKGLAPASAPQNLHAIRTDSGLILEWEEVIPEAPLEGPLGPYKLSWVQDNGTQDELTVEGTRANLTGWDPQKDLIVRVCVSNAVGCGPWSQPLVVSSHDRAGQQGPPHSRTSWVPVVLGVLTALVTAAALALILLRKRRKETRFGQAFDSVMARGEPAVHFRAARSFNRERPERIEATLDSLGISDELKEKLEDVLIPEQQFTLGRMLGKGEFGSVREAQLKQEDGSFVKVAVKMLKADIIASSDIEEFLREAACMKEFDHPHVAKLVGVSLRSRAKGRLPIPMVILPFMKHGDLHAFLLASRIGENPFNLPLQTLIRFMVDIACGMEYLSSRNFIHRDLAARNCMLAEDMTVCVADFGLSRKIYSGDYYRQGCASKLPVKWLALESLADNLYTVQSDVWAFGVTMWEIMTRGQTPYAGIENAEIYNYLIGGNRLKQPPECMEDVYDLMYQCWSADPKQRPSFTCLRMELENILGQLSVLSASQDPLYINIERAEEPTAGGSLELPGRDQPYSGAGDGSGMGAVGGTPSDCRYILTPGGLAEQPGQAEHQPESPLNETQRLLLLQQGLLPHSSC
# advanced BCa = details: clinical trial of cabozantinib in advanced BCa patients; cited from earlier work
# FGFR2 = FGFR2 (Homo sapiens, UniProt P21802); test: cell-free kinase inhibition assay, cabozantinib dose-dependence; type: biochemical; details: minimum of 3 x 10-dose curves
# FGFR3 = FGFR3 (Homo sapiens, UniProt P22607); test: as above; type: biochemical
# FL3 cells [1] = test: Transwell cell migration assay, FL3 cells; details: serum deprived FL3 cells, 16 h, 37°C, cabozantinib 300 nM
# Akt [2] = test: Akt kinase activation (pAkt/tAkt) by 2-site immunoassay in J82 cells; type: cell-based, Human; details: serum-deprived J82 cells
# ALK = ALK (Homo sapiens, UniProt Q9UM73); test: cell-free kinase inhibition assay, cabozantinib dose-dependence
# FLT4 = FLT4 (Homo sapiens, UniProt P35916); test: as above; type: biochemical; details: minimum of 3 x 10-dose curves
# Sequence of FLT4 (P35916 25-1363): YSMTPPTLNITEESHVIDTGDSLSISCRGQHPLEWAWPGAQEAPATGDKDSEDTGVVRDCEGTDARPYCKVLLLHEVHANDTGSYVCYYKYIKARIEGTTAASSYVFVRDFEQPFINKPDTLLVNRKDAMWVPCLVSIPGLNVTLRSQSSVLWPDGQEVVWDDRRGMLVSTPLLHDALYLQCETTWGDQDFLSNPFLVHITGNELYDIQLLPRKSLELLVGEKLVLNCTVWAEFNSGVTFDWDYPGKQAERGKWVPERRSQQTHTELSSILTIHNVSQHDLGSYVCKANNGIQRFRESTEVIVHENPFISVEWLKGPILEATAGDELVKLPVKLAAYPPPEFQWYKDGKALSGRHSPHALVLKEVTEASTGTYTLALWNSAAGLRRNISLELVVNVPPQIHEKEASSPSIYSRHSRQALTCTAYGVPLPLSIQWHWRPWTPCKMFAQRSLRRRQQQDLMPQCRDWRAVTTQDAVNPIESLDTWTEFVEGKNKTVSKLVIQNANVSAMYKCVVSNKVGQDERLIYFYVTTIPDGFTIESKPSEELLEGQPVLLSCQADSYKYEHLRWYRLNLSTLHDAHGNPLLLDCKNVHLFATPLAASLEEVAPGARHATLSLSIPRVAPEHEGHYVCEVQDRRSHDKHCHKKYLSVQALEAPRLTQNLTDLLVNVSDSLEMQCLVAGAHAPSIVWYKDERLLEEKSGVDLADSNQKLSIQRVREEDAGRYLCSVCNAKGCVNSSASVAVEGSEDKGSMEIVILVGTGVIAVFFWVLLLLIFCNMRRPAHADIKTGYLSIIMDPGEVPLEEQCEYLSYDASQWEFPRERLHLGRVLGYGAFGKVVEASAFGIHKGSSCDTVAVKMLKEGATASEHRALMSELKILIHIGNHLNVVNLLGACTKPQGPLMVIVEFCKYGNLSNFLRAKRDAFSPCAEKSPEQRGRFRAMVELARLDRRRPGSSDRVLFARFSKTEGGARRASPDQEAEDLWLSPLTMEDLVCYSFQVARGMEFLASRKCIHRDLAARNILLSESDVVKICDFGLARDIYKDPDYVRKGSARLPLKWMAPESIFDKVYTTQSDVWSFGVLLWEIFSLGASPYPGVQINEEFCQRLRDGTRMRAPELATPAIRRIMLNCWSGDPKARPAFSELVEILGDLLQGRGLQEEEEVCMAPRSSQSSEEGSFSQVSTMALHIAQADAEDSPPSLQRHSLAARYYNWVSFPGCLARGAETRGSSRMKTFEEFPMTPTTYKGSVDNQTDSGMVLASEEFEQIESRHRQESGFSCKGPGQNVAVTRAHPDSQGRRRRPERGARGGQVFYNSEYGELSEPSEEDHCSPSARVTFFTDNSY
# FGFR1 = FGFR1 (Homo sapiens, UniProt P11362); test: as above; type: biochemical
# Axl = target: T2, Axl (Homo sapiens, UniProt P30530); test: Axl kinase activation (pAxl/tAxl) by 2-site immunoassay in J82 cells; type: cell-based; details: serum-deprived J82 cells, Gas6 5.7 nM 1 h at 37°C, added cabozantinib 300 nM, relative to untreated cells
# T2 construct: endogenous in cells; host or cells: J82 (ATCC HTB-1)
# T2 sequence (P30530 26-894): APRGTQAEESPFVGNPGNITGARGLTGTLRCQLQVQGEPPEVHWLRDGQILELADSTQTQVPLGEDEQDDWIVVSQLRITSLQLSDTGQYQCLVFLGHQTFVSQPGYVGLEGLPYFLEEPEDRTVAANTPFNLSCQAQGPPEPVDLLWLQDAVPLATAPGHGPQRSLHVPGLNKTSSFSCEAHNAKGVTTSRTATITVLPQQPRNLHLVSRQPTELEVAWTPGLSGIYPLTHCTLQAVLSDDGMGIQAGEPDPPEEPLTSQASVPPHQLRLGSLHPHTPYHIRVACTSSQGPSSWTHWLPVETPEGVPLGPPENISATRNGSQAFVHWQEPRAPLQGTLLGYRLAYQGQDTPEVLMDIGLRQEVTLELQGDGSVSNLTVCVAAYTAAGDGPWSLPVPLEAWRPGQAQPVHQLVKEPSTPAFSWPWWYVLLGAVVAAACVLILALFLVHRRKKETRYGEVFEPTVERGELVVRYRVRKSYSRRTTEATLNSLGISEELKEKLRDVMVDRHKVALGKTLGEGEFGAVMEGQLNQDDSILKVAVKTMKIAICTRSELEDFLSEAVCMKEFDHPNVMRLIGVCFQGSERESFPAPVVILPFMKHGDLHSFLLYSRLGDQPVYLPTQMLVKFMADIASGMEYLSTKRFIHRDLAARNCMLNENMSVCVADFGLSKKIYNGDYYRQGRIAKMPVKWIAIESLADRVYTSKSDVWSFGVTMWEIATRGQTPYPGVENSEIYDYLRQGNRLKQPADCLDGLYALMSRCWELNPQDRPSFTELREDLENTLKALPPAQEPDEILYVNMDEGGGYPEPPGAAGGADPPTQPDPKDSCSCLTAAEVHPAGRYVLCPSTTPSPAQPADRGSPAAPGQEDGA
# DDR2 = DDR2 (Homo sapiens, UniProt Q16832); test: cell-free kinase inhibition assay, cabozantinib dose-dependence; type: biochemical; details: minimum of 3 x 10-dose curves
# FL3 cells [3] = test: cell proliferation assay, FL3 cells; type: cell-based, Human; details: 1% FBS, 6 d
# CSF1R [4] = target: T3, CSF1R (Homo sapiens, UniProt P07333); set-up: method as in PMID 30075184; details: intact cells; cited from earlier work
# T3 sequence (P07333 20-972): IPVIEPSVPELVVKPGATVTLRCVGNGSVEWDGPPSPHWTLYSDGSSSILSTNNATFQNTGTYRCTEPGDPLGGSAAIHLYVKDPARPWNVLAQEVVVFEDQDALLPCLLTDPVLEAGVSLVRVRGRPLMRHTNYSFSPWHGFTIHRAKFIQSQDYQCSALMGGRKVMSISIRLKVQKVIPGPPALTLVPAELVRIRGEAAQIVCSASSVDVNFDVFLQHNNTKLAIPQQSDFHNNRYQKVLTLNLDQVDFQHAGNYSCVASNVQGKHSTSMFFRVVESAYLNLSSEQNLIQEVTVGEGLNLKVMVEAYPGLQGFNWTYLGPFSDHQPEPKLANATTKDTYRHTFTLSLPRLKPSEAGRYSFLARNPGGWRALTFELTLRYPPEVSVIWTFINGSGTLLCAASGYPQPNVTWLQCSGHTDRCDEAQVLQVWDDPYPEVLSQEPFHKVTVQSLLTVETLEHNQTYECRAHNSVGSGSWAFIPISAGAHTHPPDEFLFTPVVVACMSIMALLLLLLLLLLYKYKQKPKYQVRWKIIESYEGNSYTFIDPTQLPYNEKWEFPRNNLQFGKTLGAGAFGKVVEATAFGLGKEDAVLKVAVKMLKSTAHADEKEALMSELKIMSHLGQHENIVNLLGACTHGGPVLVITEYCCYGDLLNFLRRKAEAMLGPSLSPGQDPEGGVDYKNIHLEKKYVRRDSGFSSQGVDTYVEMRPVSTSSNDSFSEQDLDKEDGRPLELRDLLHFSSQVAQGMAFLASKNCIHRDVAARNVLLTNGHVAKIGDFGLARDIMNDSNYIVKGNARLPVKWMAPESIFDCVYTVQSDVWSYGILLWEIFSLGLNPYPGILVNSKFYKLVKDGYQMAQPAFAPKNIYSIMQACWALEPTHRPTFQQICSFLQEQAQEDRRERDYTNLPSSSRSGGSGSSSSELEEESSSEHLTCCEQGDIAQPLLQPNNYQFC
# J82 cells [5] = test: anchorage independent growth assay, J82 cells; details: 1% FBS, cabozantinib 300 nM, with or without Gas6 5.7 nM
# NTRK2 = NTRK2 (Homo sapiens, UniProt Q16620); test: cell-free kinase inhibition assay, cabozantinib dose-dependence; type: biochemical
# Sequence of NTRK2 (Q16620 32-822): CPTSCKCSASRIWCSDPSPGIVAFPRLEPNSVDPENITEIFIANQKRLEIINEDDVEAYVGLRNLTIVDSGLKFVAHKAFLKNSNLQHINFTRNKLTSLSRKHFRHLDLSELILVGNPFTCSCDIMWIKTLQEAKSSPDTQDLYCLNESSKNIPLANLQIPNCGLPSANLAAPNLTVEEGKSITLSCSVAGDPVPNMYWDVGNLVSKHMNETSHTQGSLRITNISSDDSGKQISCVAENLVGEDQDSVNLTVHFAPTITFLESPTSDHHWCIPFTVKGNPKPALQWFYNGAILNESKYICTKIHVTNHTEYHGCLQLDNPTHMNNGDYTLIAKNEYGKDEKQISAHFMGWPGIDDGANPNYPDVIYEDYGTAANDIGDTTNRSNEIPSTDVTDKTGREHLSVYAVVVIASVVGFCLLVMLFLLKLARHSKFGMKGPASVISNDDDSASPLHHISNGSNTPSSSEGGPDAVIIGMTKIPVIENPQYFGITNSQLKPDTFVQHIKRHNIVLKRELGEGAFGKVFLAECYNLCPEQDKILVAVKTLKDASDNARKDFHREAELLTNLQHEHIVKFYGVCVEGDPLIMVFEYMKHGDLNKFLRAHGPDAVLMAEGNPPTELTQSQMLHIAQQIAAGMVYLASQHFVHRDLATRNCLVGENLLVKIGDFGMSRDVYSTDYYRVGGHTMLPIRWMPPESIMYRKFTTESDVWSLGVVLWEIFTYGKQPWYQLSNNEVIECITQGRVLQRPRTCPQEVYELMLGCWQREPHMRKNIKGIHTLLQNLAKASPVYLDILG
# FL3 cells [6] = test: anchorage independent growth assay, FL3 cells; details: 1% FBS, cabozantinib 300 nM, with or without MST1 5 nM or CSF1 10 nM
# TEK = details: in vitro; read-out: IC50, TEK inhibition in vitro; cited from earlier work
# CSF1R [7] = target: T3, CSF1R; test: cell-free kinase inhibition assay, cabozantinib dose-dependence; type: biochemical; details: minimum of 3 x 10-dose curves
# J82 cells [8] = test: cell proliferation assay, J82 cells; type: cell-based, Human; details: 1% FBS, 6 d
# FGFR4 = FGFR4 (Homo sapiens, UniProt P22455); test: cell-free kinase inhibition assay, cabozantinib dose-dependence; type: biochemical
# PDGFRA = PDGFRA (Homo sapiens, UniProt P16234); test: as above; type: biochemical; details: minimum of 3 x 10-dose curves
# DDR1 = DDR1 (Homo sapiens, UniProt Q08345); test: as above; type: biochemical; details: minimum of 3 x 10-dose curves
# Erk [9] = test: Erk kinase activation (pErk/tErk) by 2-site immunoassay in J82 cells; type: cell-based, Human; details: serum-deprived J82 cells
# 5637 cells = test: cell proliferation assay, 5637 cells; type: cell-based, Human; details: 1% FBS, 6 d
# IGF1R = IGF1R (Homo sapiens, UniProt P08069); test: cell-free kinase inhibition assay, cabozantinib dose-dependence; type: biochemical
# ROS = ROS (Homo sapiens, UniProt P08922); test: as above; type: biochemical; details: minimum of 3 x 10-dose curves
# Akt [10] = test: Akt kinase activation (pAkt/tAkt) in FL3 cells, MST1R and CSF1R pathways; type: cell-based, Human; details: serum-deprived FL3 cells, MST1 (5 nM) or CSF1 (10 nM), cabozantinib 300 nM
# Erk [11] = test: Erk kinase activation (pErk/tErk) in FL3 cells, MST1R and CSF1R pathways; type: cell-based, Human; details: MST1 or CSF1, cabozantinib
# J82 cells [12] = test: Transwell cell migration assay, J82 cells; details: serum deprived J82 cells, 16 h, 37°C, Gas6 5.7 nM, cabozantinib 300 nM
# NTRK1 = NTRK1 (Homo sapiens, UniProt P04629); test: cell-free kinase inhibition assay, cabozantinib dose-dependence; type: biochemical; details: minimum of 3 x 10-dose curves
# MUSK = MUSK (Homo sapiens, UniProt O15146); test: as above; type: biochemical
# NTRK3 = NTRK3 (Homo sapiens, UniProt Q16288); test: as above; type: biochemical; details: minimum of 3 x 10-dose curves
# [13] = Gas6 5.7 nM 1 h, cabozantinib 300 nM
# [14] = cabozantinib 300 nM, in the presence or absence of added Gas6 (5.7 nM)
# [15] = exogenous Gas6 5.7 nM, 1 h at 37°C
compound,measurement,setting,value
CN1CCN(Cc2ccc(Nc3ncc(Cl)c(Nc4ccccc4S(=O)(=O)N(C)C)n3)cc2)CC1 [TP0903],phospho-MERTK content,MERTK; TP0903 300 nM,reduced phospho-MERTK content below that of untreated serum-deprived cells
COc1cc2nccc(Oc3ccc(NC(=O)C4(C(=O)Nc5ccc(F)cc5)CC4)cc3)c2cc1OC [cabozantinib],pIC50,TYRO3,> 7.30 and 8.52
same,overall response rate,advanced BCa,33%
same,pIC50,FGFR2,< 5.52
same,pIC50,FGFR3,< 5.52
same,CSF1-induced migration,FL3 cells [1]; CSF1 10 nM,repressed
same,MST1-induced migration,FL3 cells [1]; MST1 5 nM,repressed
same,Akt kinase activation (pAkt/tAkt),Akt [2]; [13],suppression below baseline
same,pIC50,ALK,< 5.52
same,pIC50,FLT4,7.62 and > 7.30
same,pIC50,FGFR1,< 5.52
same,Axl kinase activation (pAxl/tAxl),Axl,suppressed significantly below control levels
same,pIC50,DDR2,> 6.82
same,proliferation,FL3 cells [3]; both cabozantinib 300 nM and MST1 5 nM,"reduced FL3 proliferation to the control cell growth rate, but not below"
same,proliferation rate,"FL3 cells [3]; cabozantinib alone 300 nM, relative to untreated cells",significantly reduced proliferation rate
same,inhibition of CSF1R activation,CSF1R [4],complete inhibition
same,anchorage independent growth,J82 cells [5],inhibited
same,pIC50,NTRK2,> 7.30
same,pIC50,"NTRK2; IC50 (NTRK2), cell-free assay, minimum of 3 x 10-dose curves",7.82
same,anchorage independent growth,FL3 cells [6],inhibited
same,pIC50,TEK,7.85
same,pIC50,CSF1R [7],7.85
same,proliferation,J82 cells [8]; [14],significantly inhibited proliferation by these lines below the rate of untreated cells
same,pIC50,FGFR4,< 5.52
same,pIC50,PDGFRA,6.38
same,pIC50,DDR1,> 6.82
same,Erk kinase activation (pErk/tErk),Erk [9]; [13],suppression below baseline
same,proliferation,5637 cells; [14],significantly inhibited proliferation by these lines below the rate of untreated cells
same,pIC50,IGF1R,< 5.52
same,pIC50,ROS,7.37 and > 7.30
same,Akt kinase activation (pAkt/tAkt),Akt [10],suppressed significantly below baseline
same,Erk kinase activation (pErk/tErk),Erk [11],suppressed significantly below baseline
same,Gas6-induced migration,J82 cells [12],repressed
same,pIC50,NTRK1,7.96
same,pIC50,MUSK,< 5.52
same,pIC50,NTRK3,> 6.82
"Gas6: exogenous ligand of AXL (also activates MERTK), added to cells at 5.7 nM",Akt kinase activation (pAkt/tAkt),Akt [2]; [15],significant exogenous Gas6-induced activation
same,MERTK autophosphorylation,MERTK; exogenous Gas6 5.7 nM,stimulated robust MERTK autophosphorylation
same,proliferation rate,J82 cells [8]; exogenously added Gas6 5.7 nM,significantly increased
same,Erk kinase activation (pErk/tErk),Erk [9]; [15],significant exogenous Gas6-induced activation
same,proliferation rate,5637 cells; exogenously added Gas6 5.7 nM,significantly increased
